The source of these data is patent US20240150377A1, “MODULATORS OF CYSTIC FIBROSIS TRANSMEMBRANE CONDUCTANCE REGULATOR” (VERTEX PHARMACEUTICALS INCORPORATED, priority 2020, published 2024).

For data set [1] the following is noted: amide bond, 13-membered ring, DMF.
The target of a further data set is T1, F508del (Homo sapiens, UniProt P13569, DEL508-508).
T1 construct: expressed in transfected cells
Nature of the data set: 3T3 assay: membrane potential optical assay for F508del correction. In kind it is cell-based. Particulars: F508del NIH 3T3 cells; for Emax: NIH3T3, compared to lumacaftor in combination with acutely added 300 nM Ivacaftor, read-out: 3T3 Max Activity; for EC50: 18-24 hours at 37° C., forskolin, acutely added 300 nM Ivacaftor. The source says:
1. Membrane Potential Optical Methods for Assaying F508del Modulation Properties of Compounds
The assay utilizes fluorescent voltage sensing dyes to measure changes in membrane potential using a fluorescent plate reader (e.g., FLIPR III, Molecular Devices, Inc.) as a readout for increase in functional F508del in NIH 3T3 cells. The driving force for the response is the creation of a chloride ion gradient in conjunction with channel activation by a single liquid addition step after the cells have previously been treated with compounds and subsequently loaded with a voltage sensing dye.
2. Identification of Corrector Compounds
To identify correctors of F508del, a single-addition HTS assay format was developed. This HTS assay utilizes fluorescent voltage sensing dyes to measure changes in membrane potential on the FLIPR III as a measurement for increase in gating (conductance) of F508del in F508del NIH 3T3 cells. The F508del NIH 3T3 cell cultures were incubated with the corrector compounds at a range of concentrations for 18-24 hours at 37° C., and subsequently loaded with a redistribution dye. The driving force for the response is a Cl^− ion gradient in conjunction with channel activation with forskolin in a single liquid addition step using a fluorescent plate reader such as FLIPR III.
Bath Solution #1: (in mM) NaCl 160, KCl 4.5, CaCl2) 2, MgCl2 1, HEPES 10, pH 7.4 with NaOH.
Chloride-free bath solution: Chloride salts in Bath Solution #1 (above) are substituted with gluconate salts.
NIH3T3 mouse fibroblasts stably expressing F508del are used for optical measurements of membrane potential. The cells are maintained at 37° C. in 5% CO2 and 90% humidity in Dulbecco's modified Eagle's medium supplemented with 2 mM glutamine, 10% fetal bovine serum, 1× NEAA, b-ME, 1×pen/strep, and 25 mM HEPES in 175 cm^2 culture flasks. For all optical assays, the cells were seeded at ˜20,000/well in 384-well Matrigel-coated plates. For the correction assays, the cells are cultured at 37° C. with and without compounds for 16-24 hours.

Data set [2] addresses T2, CFTR (Homo sapiens, UniProt P13569). Nature of the data set: Membrane potential dye, Enteroid Assay A. Type of data set: cell-based. The following applies: for Ent. A Max Activity: chloride transport as % of triple combination control (Enteroid Assay A); for EC50: human enteroid cells, 18-24 hours, acute 10 μM forskolin and 300 nM ivacaftor, read-out: Ent. A EC50. The method in brief: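 Human intestinal enteroids incubated 18-24 h at 37 °C with test compound, then loaded with 20 μM methyl oxonol (with CaCC inhibitors). Chloride transport triggered in chloride-free buffer with 10 μM forskolin, 100 μM IBMX, 300 nM Compound III; fluorescence read 15 min, expressed as % of a triple-combination corrector/potentiator control.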

For data set [3], the target named is T2, CFTR. Put plainly: Membrane potential dye, Enteroid Assay B. In kind it is cell-based. Particulars: Table 6. Summed up: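 Human intestinal enteroids were treated with compound in maintenance medium for 18-24 h at 37° C, then loaded with methyl oxonol membrane-potential dye (25 min, room temperature). Chloride transport was triggered in chloride-free buffer with 10 μM forskolin, 100 μM IBMX and 300 nM Compound III, fluorescence read 15 min; expressed as % of triple-combination control.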

The structures appear in SMILES notation. Like-named read-outs stand apart in the source and are kept apart here.

T2 sequence (P13569 with tags, fused parts or gaps DEL508-508): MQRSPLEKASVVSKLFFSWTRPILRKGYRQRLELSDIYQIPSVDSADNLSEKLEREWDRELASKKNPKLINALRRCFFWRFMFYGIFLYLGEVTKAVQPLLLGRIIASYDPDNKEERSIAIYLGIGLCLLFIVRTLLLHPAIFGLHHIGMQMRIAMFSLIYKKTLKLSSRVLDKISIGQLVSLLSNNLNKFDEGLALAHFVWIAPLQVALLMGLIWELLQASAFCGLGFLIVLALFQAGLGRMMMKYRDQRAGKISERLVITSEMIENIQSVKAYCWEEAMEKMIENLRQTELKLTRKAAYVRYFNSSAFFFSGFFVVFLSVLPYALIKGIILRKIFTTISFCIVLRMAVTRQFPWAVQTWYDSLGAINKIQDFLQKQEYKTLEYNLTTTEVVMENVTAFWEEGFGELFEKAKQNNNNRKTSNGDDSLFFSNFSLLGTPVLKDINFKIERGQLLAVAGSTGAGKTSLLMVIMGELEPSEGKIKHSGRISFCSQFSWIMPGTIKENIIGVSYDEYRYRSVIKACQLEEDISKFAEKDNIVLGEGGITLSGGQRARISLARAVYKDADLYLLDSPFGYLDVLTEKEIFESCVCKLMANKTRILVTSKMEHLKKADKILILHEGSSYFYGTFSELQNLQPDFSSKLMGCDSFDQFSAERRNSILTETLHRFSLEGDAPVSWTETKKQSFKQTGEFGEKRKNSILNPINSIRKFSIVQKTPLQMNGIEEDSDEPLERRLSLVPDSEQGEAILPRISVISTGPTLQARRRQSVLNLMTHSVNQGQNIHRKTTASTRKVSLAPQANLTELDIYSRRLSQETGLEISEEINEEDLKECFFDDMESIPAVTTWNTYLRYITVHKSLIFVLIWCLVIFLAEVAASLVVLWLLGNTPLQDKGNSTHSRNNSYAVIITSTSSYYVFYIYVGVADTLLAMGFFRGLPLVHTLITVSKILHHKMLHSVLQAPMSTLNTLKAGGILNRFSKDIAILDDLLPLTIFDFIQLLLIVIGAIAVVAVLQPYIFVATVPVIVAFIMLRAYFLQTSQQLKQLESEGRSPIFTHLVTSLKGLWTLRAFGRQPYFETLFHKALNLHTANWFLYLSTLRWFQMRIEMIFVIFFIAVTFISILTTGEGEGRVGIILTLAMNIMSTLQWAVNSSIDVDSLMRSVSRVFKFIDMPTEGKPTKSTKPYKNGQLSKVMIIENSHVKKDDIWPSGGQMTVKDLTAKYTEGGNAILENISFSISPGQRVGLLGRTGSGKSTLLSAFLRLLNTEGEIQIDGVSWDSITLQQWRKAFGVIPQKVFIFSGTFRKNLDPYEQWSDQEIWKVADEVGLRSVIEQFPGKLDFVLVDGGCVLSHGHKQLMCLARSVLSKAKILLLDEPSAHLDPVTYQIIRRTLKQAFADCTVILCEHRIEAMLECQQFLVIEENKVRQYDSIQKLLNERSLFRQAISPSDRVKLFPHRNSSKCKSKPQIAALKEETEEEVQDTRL
T1 sequence (P13569 with tags, fused parts or gaps DEL508-508): as above

As to `COC(=O)C12CC(CN3C(=O)c4cccc(c4)S(=O)(=O)Nc4nc(cc(-c5c(C)cccc5C)n4)OC[C@H]3CC(C)(C)C)(C1)C2`, the ring closure, yield after HPLC in data set [1] (from COC(=O)C12CC(CN[C@@H](COc3cc(-c4c(C)cccc4C)nc(NS(=O)(=O)c4cccc(C(=O)O)c4)n3)CC(C)(C)C)(C1)C2, CDMT/NMM, 29.1 mM, 25.0 °C, 60.0 h) was found to be 27%.
Turning to `Cc1cccc(C)c1-c1cc2nc(n1)N=S(N)(=O)c1cccc(c1)C(=O)N(Cc1ncc(N3CC(C)(C)C3)cn1)[C@H](CC(C)(C)C)CO2` (single isomer, unassigned; isomer b), in data set [1] (from 3-[[[4-[(2R)-2-[[5-(3,3-dimethylazetidin-1-yl)pyrimidin-2-yl]methylamino]-4,4-dimethyl-pentoxy]-6-(2,6-dimethylphenyl)pyrimidin-2-yl]amino]sulfonimidoyl]benzoic acid (hydrochloride salt) isomer B, CDMT/NMM, 18.4 mM), the ring closure, yield after HPLC worked out at 4%.
As to `Cc1cccc(C)c1-c1cc2nc(n1)NS(=O)(=O)c1cccc(c1)C(=O)N(Cc1cncc(N(C)C3CCC3)n1)[C@@H]1CN(C(=O)OC(C)(C)C)C[C@H]1O2`, the ring closure, yield after HPLC in data set [1] (from Cc1cccc(C)c1-c1cc(O[C@@H]2CN(C(=O)OC(C)(C)C)C[C@H]2NCc2cncc(N(C)C3CCC3)n2)nc(NS(=O)(=O)c2cccc(C(=O)O)c2)n1, CDMT/NMM, 24.3 mM, 15.1 h) is 48%.
As for `CCOC(=O)CCCCN1C(=O)c2cccc(c2)S(=O)(=O)Nc2nc(cc(-c3c(C)cccc3C)n2)OC[C@H]1CC(C)(C)C`, the ring closure, yield after HPLC in data set [1] (from CCOC(=O)CCCCN[C@@H](COc1cc(-c2c(C)cccc2C)nc(NS(=O)(=O)c2cccc(C(=O)O)c2)n1)CC(C)(C)C, HATU/DIEA, 62.0 mM, 25.0 °C, 1.0 h) was determined as 66%.
The molecule `Cc1cccc(C)c1-c1cc2nc(n1)NS(=O)(=O)c1cccc(c1)C(=O)N(Cc1ccc(I)cc1)[C@H](CC(C)(C)C)CO2` yielded a ring closure, yield after HPLC in data set [1] (from Cc1cccc(C)c1-c1cc(OC[C@@H](CC(C)(C)C)NCc2ccc(I)cc2)nc(NS(=O)(=O)c2cccc(C(=O)O)c2)n1, HATU/DIEA, 26.1 mM, 15.0 h) of 32%.
Regarding `Cc1cccc(C)c1-c1cc2nc(n1)NS(=O)(=O)c1cccc(c1)C(=O)N(CC1CCN(C(=O)OC(C)(C)C)CC1)[C@H](CC(C)(C)C)CO2`, the ring closure, yield after HPLC in data set [1] (from Cc1cccc(C)c1-c1cc(OC[C@@H](CC(C)(C)C)NCC2CCN(C(=O)OC(C)(C)C)CC2)nc(NS(=O)(=O)c2cccc(C(=O)O)c2)n1, CDMT/NMM, 25.0 °C, 3.5 h, 2 steps) came out at 25%.
For the molecule `Cc1cccc(C)c1-c1cc2nc(n1)NS(=O)(=O)c1cccc(c1)C(=O)N(C)[C@H](CC(C)C)C(c1ccc(C(C)(C)C)cn1)O2` (stereo in doubt) [Compound 1, (10S,11R)-10-(5-tert-butyl-2-pyridyl)-6-(2,6-dimethylphenyl)-11-isobutyl-12-methyl-2,2-dioxo-9-oxa-2λ^6-thia-3,5,12,19-tetrazatricyclo[12.3.1.14,8]nonadeca-1(18),4(19),5,7,14,16-hexaen-13-one], at F508del (Table 6), the Emax was above 60% and the concentration giving a half-maximal response (EC50) is below 1000 nM. Moreover, on CFTR [2] (Table 6), the “Ent. A Max Activity” value was “+++ (+++ is >60%)” and the concentration for a half-maximal effect (EC50) was below 1000 nM.
For `CCCCCCCCN1C(=O)c2cccc(c2)S(=O)(=O)Nc2nc(cc(-c3c(C)cccc3C)n2)OC[C@H]1CC(C)C` [Compound 361], on F508del (Table 6), the Emax was above 60% and the EC50 was below 1000 nM. Also, on CFTR [2] (Table 6), the “Ent. A Max Activity” value was “+++ (+++ is >60%)” and the half-maximal effective concentration (EC50) was below 1000 nM.
As for `Cc1cccc(C)c1-c1cc2nc(n1)NS(=O)(=O)c1cccc(c1)NC(=O)CN(C(=O)OC(C)(C)C)CCO2` [Compound 516], at F508del (Table 6), the Emax was above 60% and the EC50 was below 1000 nM. Also, on CFTR [2] (Table 6), the “Ent. A Max Activity” value was “+++ (+++ is >60%)” and the EC50 lay within 3000 to 30000 nM.
On the same counts, the results for `Cc1cccc(C)c1-c1cc2nc(n1)NS(=O)(=O)c1cccc(c1)C(=O)N(CCCC1CCOCC1)[C@H](CC(C)C)CO2` [Compound 353] are above 60%, below 1000 nM, “+++ (+++ is >60%)” and below 1000 nM.
`Cc1cccc(C)c1-c1cc2nc(n1)NS(=O)(=O)c1cccc(c1)C(=O)N(CCC1CCN(C(C)C)CC1)[C@H](CC(C)C)CO2` [Compound 85, (11R)-6-(2,6-Dimethylphenyl)-11-isobutyl-12-[2-(1-isopropyl-4-piperidyl)ethyl]-2,2-dioxo-9-oxa-2λ^6-thia-3,5,12,19-tetrazatricyclo[12.3.1.14,8]nonadeca-1(18),4(19),5,7,14,16-hexaen-13-one]: at F508del (Table 7), the Emax was above 60% and the EC50 is below 1000 nM. At CFTR [2] (Table 7), the “Ent. A Max Activity” value was “+++ (+++ is >60%)” and the concentration giving a half-maximal response (EC50) was below 1000 nM.
As for `Cc1cccc(C)c1-c1cc2nc(n1)NS(=O)(=O)c1cccc(c1)C(=O)N(C)C[C@H](c1ccc(C(C)(C)C)cc1)O2` (single isomer, unassigned) [Compound 11, 10-(4-tert-Butylphenyl)-6-(2,6-dimethylphenyl)-12-methyl-2,2-dioxo-9-oxa-2λ^6-thia-3,5,12,19-tetrazatricyclo[12.3.1.14,8]nonadeca-1(18),4(19),5,7,14,16-hexaen-13-one], on F508del (Table 7), the Emax was above 60% and the 50% effective concentration (EC50) is below 1000 nM. For the same molecule, on CFTR [2] (Table 7), the “Ent. A Max Activity” value is reported as “+++ (+++ is >60%)” and the EC50 was below 1000 nM.
With `Cc1cccc(C)c1-c1cc2nc(n1)NS(=O)(=O)c1cccc(c1)C(=O)N(Cc1ccc(N3CCC(C)CC3)nc1)[C@H](CC(C)C)CO2` [Compound 975], the Emax on F508del (Table 6) was above 60%. Besides, the EC50 was below 1000 nM at F508del (Table 6); below 1000 nM at CFTR [2] (Table 6); below 1000 nM on CFTR [3] (human enteroid cells, 18-24 hours, acute 10 μM forskolin and 300 nM ivacaftor, read-out: Ent. B EC50). For the same molecule, the “Ent. A Max Activity” value on CFTR [2] (Table 6) is “+++ (+++ is >60%)”. Moreover, the “Ent. B Max Activity” value on CFTR [3] (chloride transport as % of triple combination control (Enteroid Assay B)) is “+++ (+++ is >60%)”.
On to `Cc1cccc(C)c1-c1cc2nc(n1)NS(=O)(=O)c1cccc(c1)C(=O)N(Cc1ccccc1)CC(Cc1ccccc1)O2` (stereo in doubt) [Compound 106, (10R)-10,12-dibenzyl-6-(2,6-dimethylphenyl)-9-oxa-2λ^6-thia-3,5,12,19-tetraazatricyclo[12.3.1.14,8]nonadeca-1(17),4(19),5,7,14(18),15-hexaene-2,2,13-trione], for which, at F508del (Table 6), the Emax was above 60% and the half-maximal effective concentration (EC50) was below 1000 nM. Further, at CFTR [2] (Table 6), the “Ent. A Max Activity” value is given as “+++ (+++ is >60%)” and the concentration for a half-maximal effect (EC50) is below 1000 nM.
With `Cc1cccc(C)c1-c1cc2nc(n1)NS(=O)(=O)c1cccc(c1)CN(CCC(C)(C)C)[C@H](CC(C)C)CO2` [Compound 1043], at F508del (Table 6), the Emax was above 60% and the EC50 is below 1000 nM. At CFTR [2] (Table 6), the “Ent. A Max Activity” value is “+++ (+++ is >60%)” and the half-maximal effective concentration (EC50) was below 1000 nM.
Regarding `Cc1cccc(C)c1-c1cc2nc(n1)NS(=O)(=O)c1cccc(c1)C(=O)N(C)C[C@H](c1ccc(C(C)(C)C)cn1)O2` (single isomer, unassigned) [Compound 103, 10-(5-tert-butyl-2-pyridyl)-6-(2,6-dimethylphenyl)-12-methyl-2,2-dioxo-9-oxa-2λ^6-thia-3,5,12,19-tetrazatricyclo[12.3.1.14,8]nonadeca-1(18),4(19),5,7,14,16-hexaen-13-one], at F508del (Table 7), the Emax is above 60% and the EC50 is below 1000 nM. Moreover, at CFTR [2] (Table 7), the “Ent. A Max Activity” value was “+++ (+++ is >60%)” and the EC50 was below 1000 nM.
As to `COc1ccc(CN2C(=O)c3cccc(c3)S(=O)(=O)Nc3nc(cc(-c4c(C)cccc4C)n3)OC[C@H]2CC(C)C)cc1` [Compound 347], on F508del (Table 6), the Emax was above 60% and the EC50 is below 1000 nM. Further, at CFTR [2] (Table 6), the “Ent. A Max Activity” value was “+++ (+++ is >60%)” and the concentration for a half-maximal effect (EC50) was below 1000 nM.

For orientation: EC50 means the concentration at which the effect is half-maximal.
